Active and inactive are the calls of the source. The rule behind the calls is not given here.
Tests used:
[1] = molecular target: Proto-oncogene tyrosine-protein kinase Src (Homo sapiens) (UniProt P12931); test: Inhibition of c-Src (unknown origin) at 10 uM assessed as residual enzyme activity
[2] = molecular target: Cyclin-dependent kinase 5/CDK5 activator 1 (Homo sapiens) (UniProt Q00535+Q15078); test: Inhibition of CDK5/p35 (unknown origin) at 10 uM assessed as residual enzyme activity; format: protein-complex assay
[3] = molecular target: Mitogen-activated protein kinase kinase kinase 5 (Homo sapiens) (UniProt Q99683); test: Inhibition of ASK1 (unknown origin) at 10 uM assessed as residual enzyme activity
[4] = molecular target: Mast/stem cell growth factor receptor Kit (Homo sapiens) (UniProt P10721); test: Inhibition of c-KIT (unknown origin) at 10 uM assessed as residual enzyme activity
[5] = molecular target: Macrophage colony-stimulating factor 1 receptor (Homo sapiens) (UniProt P07333); test: Inhibition of FMS (unknown origin) at 10 uM assessed as residual enzyme activity
HL-60 = test: Inhibition of STAT5 phosphorylation in human HL60 cells at 0.1 to 10 uM after 12 hrs by Western blot method; format: cell-based
MV4-11 [6] = test: Induction of apoptosis in human MV4-11 cells assessed as increase in cleaved caspase-3 level at 0.1 to 10 uM after 12 hrs by Western blot method; format: functional, cell-based
MV4-11 [7] = test: Induction of apoptosis in human MV4-11 cells assessed as PARP cleavage at 0.1 to 10 uM after 12 hrs by Western blot method; format: functional, cell-based
[8] = Cytotoxicity against human U87MG cells assessed as cell viability at 1 uM after 24 hrs by WST1 assay; format: functional, U-87MG ATCC; details: U-87 MG, read-out: Activity
MCF7 = test: Cytotoxicity against human MCF7 cells assessed as cell viability at 1 uM after 24 hrs by WST1 assay; format: functional; details: MCF7, 24 h, read-out: Activity
[9] = molecular target: Mitogen-activated protein kinase 8 (Homo sapiens) (UniProt P45983); test: Inhibition of JNK1 (unknown origin) at 10 uM assessed as residual enzyme activity
[10] = molecular target: Tyrosine-protein kinase JAK1 (Homo sapiens) (UniProt P23458); test: Inhibition of JAK1 (unknown origin) at 10 uM assessed as residual enzyme activity
[11] = molecular target: Leukocyte tyrosine kinase receptor (Homo sapiens) (UniProt P29376); test: Inhibition of LTK (unknown origin) at 10 uM assessed as residual enzyme activity
[12] = molecular target: Serine/threonine-protein kinase Nek4 (Homo sapiens) (UniProt P51957); test: Inhibition of STK2 (unknown origin) at 10 uM assessed as residual enzyme activity
[13] = molecular target: Serine/threonine-protein kinase PLK1 (Homo sapiens) (UniProt P53350); test: Inhibition of PLK1 (unknown origin) at 10 uM assessed as residual enzyme activity
[14] = molecular target: Mitogen-activated protein kinase 11 (Homo sapiens) (UniProt Q15759); test: Inhibition of P38beta (unknown origin) at 10 uM assessed as residual enzyme activity
[15] = molecular target: Tyrosine-protein kinase Lck (Homo sapiens) (UniProt P06239); test: Inhibition of LCK (unknown origin) at 10 uM assessed as residual enzyme activity
[16] = molecular target: Platelet-derived growth factor receptor alpha (Homo sapiens) (UniProt P16234); test: Inhibition of PDGFRalpha (unknown origin) at 10 uM assessed as residual enzyme activity
[17] = molecular target: Focal adhesion kinase 1 (Homo sapiens) (UniProt Q05397); test: Inhibition of FAK (unknown origin) at 10 uM assessed as residual enzyme activity

Sequence of Serine/threonine-protein kinase Nek4 (Homo sapiens) (P51957 whole entry, looked up): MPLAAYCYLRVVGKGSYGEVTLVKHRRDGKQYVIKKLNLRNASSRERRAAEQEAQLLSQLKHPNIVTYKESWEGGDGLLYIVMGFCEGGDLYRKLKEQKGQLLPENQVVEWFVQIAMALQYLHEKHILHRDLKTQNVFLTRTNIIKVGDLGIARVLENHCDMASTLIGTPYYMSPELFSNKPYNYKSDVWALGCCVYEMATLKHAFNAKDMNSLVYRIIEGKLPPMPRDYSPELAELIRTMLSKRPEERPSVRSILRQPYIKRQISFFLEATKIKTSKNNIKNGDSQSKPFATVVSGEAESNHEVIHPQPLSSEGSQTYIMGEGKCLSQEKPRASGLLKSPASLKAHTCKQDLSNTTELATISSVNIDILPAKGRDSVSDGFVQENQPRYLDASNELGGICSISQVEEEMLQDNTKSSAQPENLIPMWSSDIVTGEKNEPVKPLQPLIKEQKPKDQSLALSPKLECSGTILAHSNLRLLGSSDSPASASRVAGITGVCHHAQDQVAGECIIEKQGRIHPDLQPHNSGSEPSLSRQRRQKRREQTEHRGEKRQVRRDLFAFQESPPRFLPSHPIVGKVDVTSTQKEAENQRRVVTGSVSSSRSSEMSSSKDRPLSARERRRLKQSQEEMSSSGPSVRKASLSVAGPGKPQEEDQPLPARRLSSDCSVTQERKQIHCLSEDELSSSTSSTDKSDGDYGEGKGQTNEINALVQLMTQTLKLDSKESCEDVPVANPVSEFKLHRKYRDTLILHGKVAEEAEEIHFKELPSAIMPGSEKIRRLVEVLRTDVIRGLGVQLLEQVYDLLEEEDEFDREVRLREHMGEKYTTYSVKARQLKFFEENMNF
Sequence of Cyclin-dependent kinase 5/CDK5 activator 1 (Homo sapiens) (Q00535 whole entry): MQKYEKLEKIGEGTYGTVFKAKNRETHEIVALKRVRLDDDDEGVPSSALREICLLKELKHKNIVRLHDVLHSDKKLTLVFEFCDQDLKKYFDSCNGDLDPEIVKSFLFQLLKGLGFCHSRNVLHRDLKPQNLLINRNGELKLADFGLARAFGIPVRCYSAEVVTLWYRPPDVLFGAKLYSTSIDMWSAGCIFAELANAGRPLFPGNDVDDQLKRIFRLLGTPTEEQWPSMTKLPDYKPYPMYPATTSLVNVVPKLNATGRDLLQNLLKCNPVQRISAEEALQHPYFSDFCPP
Sequence of Cyclin-dependent kinase 5/CDK5 activator 1 (Homo sapiens) (Q15078 99-307 partner limits assumed): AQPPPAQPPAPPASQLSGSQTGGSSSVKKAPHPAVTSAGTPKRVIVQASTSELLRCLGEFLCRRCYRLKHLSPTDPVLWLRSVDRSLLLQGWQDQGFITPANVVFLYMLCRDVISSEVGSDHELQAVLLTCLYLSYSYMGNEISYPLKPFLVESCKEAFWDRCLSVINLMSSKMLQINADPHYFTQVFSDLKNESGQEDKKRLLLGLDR
Sequence of Proto-oncogene tyrosine-protein kinase Src (Homo sapiens) (P12931 2-536 limits assumed): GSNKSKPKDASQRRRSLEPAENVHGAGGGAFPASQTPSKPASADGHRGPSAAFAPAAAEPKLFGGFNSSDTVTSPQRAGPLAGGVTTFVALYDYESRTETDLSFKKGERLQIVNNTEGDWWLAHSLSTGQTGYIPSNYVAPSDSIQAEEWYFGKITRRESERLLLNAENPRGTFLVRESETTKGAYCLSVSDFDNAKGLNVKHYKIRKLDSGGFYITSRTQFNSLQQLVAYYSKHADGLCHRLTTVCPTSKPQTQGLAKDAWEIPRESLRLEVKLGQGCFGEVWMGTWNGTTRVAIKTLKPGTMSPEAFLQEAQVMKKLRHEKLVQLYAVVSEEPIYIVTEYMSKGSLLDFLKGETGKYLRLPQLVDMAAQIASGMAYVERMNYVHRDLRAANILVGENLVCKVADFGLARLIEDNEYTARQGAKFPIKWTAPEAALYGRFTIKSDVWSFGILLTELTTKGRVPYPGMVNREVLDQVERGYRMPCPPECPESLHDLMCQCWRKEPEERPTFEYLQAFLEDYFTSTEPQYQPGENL
Sequence of Tyrosine-protein kinase JAK1 (Homo sapiens) (P23458 whole entry): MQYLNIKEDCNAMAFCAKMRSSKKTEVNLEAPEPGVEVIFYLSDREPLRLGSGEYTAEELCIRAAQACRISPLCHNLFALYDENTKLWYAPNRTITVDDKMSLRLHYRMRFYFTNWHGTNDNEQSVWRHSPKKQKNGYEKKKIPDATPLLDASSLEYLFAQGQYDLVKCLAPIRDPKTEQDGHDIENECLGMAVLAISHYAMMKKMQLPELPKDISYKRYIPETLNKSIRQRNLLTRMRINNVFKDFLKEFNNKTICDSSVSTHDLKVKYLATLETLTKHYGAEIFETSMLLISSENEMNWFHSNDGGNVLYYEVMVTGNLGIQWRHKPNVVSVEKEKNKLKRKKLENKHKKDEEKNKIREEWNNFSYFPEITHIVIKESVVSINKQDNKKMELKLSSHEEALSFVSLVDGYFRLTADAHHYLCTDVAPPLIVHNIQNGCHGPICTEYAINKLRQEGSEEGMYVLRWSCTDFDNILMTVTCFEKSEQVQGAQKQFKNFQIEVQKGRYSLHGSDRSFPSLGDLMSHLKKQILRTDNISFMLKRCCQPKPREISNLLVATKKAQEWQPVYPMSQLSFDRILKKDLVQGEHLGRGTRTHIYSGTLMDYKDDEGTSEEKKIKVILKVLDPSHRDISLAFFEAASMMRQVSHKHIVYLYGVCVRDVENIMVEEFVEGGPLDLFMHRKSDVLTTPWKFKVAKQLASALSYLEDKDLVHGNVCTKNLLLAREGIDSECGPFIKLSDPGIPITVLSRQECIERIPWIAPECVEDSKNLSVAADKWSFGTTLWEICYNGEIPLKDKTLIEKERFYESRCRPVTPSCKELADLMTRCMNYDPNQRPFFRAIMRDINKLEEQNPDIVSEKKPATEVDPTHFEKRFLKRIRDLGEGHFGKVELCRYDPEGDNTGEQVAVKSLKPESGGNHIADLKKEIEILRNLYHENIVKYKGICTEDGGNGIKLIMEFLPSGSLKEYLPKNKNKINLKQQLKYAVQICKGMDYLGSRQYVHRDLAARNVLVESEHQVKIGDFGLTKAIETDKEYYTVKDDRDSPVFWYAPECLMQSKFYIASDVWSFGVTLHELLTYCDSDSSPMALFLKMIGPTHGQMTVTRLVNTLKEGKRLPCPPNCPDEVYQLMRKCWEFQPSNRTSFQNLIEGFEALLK
Sequence of Leukocyte tyrosine kinase receptor (Homo sapiens) (P29376 whole entry): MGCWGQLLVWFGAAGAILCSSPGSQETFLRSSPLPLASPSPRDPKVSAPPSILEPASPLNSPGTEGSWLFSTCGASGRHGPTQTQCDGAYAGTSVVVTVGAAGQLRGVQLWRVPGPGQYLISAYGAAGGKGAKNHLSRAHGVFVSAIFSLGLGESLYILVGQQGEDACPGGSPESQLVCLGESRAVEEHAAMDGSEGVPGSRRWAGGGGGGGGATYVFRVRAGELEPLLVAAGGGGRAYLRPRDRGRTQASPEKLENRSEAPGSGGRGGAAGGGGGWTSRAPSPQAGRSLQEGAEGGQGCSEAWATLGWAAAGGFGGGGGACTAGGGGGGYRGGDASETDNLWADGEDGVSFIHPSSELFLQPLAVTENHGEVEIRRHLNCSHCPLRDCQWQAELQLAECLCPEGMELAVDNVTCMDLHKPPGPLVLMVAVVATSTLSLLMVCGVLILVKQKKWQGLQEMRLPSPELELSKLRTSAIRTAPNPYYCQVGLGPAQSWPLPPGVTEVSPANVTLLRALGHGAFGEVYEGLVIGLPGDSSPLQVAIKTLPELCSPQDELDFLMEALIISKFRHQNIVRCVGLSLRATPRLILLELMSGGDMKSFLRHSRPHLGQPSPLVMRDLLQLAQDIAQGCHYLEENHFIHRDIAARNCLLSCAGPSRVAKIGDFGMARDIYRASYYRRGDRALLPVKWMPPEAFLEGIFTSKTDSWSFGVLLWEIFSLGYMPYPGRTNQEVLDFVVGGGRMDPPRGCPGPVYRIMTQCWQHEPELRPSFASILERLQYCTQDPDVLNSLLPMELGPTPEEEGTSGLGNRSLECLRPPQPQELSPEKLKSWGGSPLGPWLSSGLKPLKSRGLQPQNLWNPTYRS
Sequence of Mitogen-activated protein kinase 11 (Homo sapiens) (Q15759 whole entry): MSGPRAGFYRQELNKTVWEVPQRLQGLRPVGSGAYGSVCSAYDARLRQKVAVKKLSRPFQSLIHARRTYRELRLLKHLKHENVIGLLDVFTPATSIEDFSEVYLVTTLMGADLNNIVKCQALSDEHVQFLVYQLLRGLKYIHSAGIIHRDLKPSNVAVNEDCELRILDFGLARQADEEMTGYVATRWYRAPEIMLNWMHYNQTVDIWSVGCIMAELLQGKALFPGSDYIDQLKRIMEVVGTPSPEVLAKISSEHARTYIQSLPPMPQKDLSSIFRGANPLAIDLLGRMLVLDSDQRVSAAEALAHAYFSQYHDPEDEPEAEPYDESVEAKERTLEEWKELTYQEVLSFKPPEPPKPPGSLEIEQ
Sequence of Mitogen-activated protein kinase 8 (Homo sapiens) (P45983 whole entry): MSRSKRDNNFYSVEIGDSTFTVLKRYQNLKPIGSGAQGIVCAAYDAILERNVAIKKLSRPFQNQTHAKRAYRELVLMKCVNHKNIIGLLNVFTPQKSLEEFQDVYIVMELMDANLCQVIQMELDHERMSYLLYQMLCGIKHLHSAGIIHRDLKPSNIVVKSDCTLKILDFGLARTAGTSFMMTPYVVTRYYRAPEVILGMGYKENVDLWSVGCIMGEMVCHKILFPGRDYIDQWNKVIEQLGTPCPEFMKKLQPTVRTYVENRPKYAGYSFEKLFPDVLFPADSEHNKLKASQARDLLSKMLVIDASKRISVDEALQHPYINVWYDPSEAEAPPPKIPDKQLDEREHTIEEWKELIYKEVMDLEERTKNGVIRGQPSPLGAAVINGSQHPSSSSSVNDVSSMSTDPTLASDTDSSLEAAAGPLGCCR

COc1ccc(-c2n[nH]c3ncc(-c4ccc(Cl)cc4N)cc23)cc1
Activity [1]: 78.7% | Activity [2]: 87.2% | Activity [3]: 97.8% | Activity [4]: 99.2% | Activity [5]: 102% | inhibition (HL-60): inactive | Activity (MV4-11 [6]): Dose-dependent effect | Activity (MV4-11 [7]): Active | viability at 1 µM [8]: 89% | viability at 1 µM (MCF7): 86% | Activity [9]: 101% | Activity [10]: 103% | Activity [11]: 92.9% | Activity [12]: 85.8% | Activity [13]: 108% | Activity [14]: 97.8% | Activity [15]: 95.2% | Activity [16]: 93.8% | Activity [17]: 96.8%

Source: ChEMBL document CHEMBL3217737, “Discovery of a highly selective FLT3 kinase inhibitor from phenotypic cell viability profiling” (Medchemcomm, 2013)
